Columns and labels:
Assay in all cases: relative viability (nuclei count vs DMSO), 5 days (fraction); higher = more cells survive
201T = tested on: 201T
In short: (§1)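 A single step with final 0.05% Triton X-100, 1% formaldehyde and 1 ug/ml Hoechst fixed the cells and stained nuclei 5 days after treatment. Lung cancer cell lines in 1536-well plates had been treated by pin tool the day after seeding with one drug alone or a fixed anchor-drug dose plus five library-drug doses (not always all listed) in √10 steps, and nuclei were counted on 4× images. Relative viability is the ratio of nuclei in treated wells to nuclei in vehicle wells, taken as the median of duplicate plates.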

ABC-1 = tested on: ABC-1
In short: as §1

CAL-12T = tested on: CAL-12T
In short: as §1

EMC-BAC-2 = tested on: EMC-BAC-2
In short: as §1

H3255 = tested on: H3255
In short: as §1

HOP-62 = tested on: HOP-62
In short: as §1

LK-2 = tested on: LK-2
In short: as §1

LXF-289 = tested on: LXF-289
In short: as §1

NCI-H1651 = tested on: NCI-H1651
In short: as §1

NCI-H1734 = tested on: NCI-H1734
In short: as §1

NCI-H1755 = tested on: NCI-H1755
In short: as §1

NCI-H2009 = tested on: NCI-H2009
In short: as §1

NCI-H2087 = tested on: NCI-H2087
In short: as §1

NCI-H2126 = tested on: NCI-H2126
In short: as §1

NCI-H2170 = tested on: NCI-H2170
In short: as §1

NCI-H322M = tested on: NCI-H322M
In short: as §1

NCI-H441 = tested on: NCI-H441
In short: as §1

NCI-H522 = tested on: NCI-H522
In short: as §1

NCI-H596 = tested on: NCI-H596
In short: as §1

NCI-H647 = tested on: NCI-H647
In short: as §1

SW 900 = tested on: SW 900
In short: as §1

COCC1(CO)C(=O)C2CCN1CC2 (stereo not given) [PRIMA-1MET] + O=C(c1cc(Cc2n[nH]c(=O)c3ccccc23)ccc1F)N1CCN(C(=O)C2CC2)CC1 [Olaparib] (partner 8 µM)
relative viability (201T; first compound 0.2 µM): 0.947
relative viability (201T; first compound 0.6325 µM): 0.829
relative viability (201T; first compound 2 µM): 0.808
relative viability (201T; first compound 6.325 µM): 0.908
relative viability (201T; first compound 20 µM): 0.839
relative viability (ABC-1; first compound 0.2 µM): 0.993
relative viability (ABC-1; first compound 2 µM): 0.664
relative viability (ABC-1; first compound 6.325 µM): 0.662
relative viability (ABC-1; first compound 20 µM): 0.616
relative viability (CAL-12T; first compound 0.2 µM): 0.806
relative viability (CAL-12T; first compound 0.6325 µM): 0.747
relative viability (CAL-12T; first compound 2 µM): 0.639
relative viability (CAL-12T; first compound 6.325 µM): 0.445
relative viability (CAL-12T; first compound 20 µM): 0.696
relative viability (EMC-BAC-2; first compound 0.2 µM): 0.624
relative viability (EMC-BAC-2; first compound 0.6325 µM): 0.486
relative viability (EMC-BAC-2; first compound 6.325 µM): 0.499
relative viability (EMC-BAC-2; first compound 20 µM): 0.43
relative viability (H3255; first compound 0.2 µM): 0.627
relative viability (H3255; first compound 0.6325 µM): 0.502
relative viability (H3255; first compound 2 µM): 0.576
relative viability (H3255; first compound 6.325 µM): 0.606
relative viability (H3255; first compound 20 µM): 0.533
relative viability (HOP-62; first compound 0.2 µM): 0.489
relative viability (HOP-62; first compound 0.6325 µM): 0.388
relative viability (HOP-62; first compound 2 µM): 0.51
relative viability (HOP-62; first compound 6.325 µM): 0.428
relative viability (HOP-62; first compound 20 µM): 0.0328
relative viability (LK-2; first compound 0.2 µM): 0.823
relative viability (LK-2; first compound 0.6325 µM): 0.632
relative viability (LK-2; first compound 2 µM): 0.513
relative viability (LK-2; first compound 6.325 µM): 0.423
relative viability (LK-2; first compound 20 µM): 0.0842
relative viability (LXF-289; first compound 0.2 µM): 1.14
relative viability (LXF-289; first compound 0.6325 µM): 1.03
relative viability (LXF-289; first compound 2 µM): 1.06
relative viability (LXF-289; first compound 6.325 µM): 1.06
relative viability (LXF-289; first compound 20 µM): 0.999
relative viability (NCI-H1651; first compound 0.2 µM): 0.226
relative viability (NCI-H1651; first compound 0.6325 µM): 0.158
relative viability (NCI-H1651; first compound 2 µM): 0.179
relative viability (NCI-H1651; first compound 6.325 µM): 0.202
relative viability (NCI-H1651; first compound 20 µM): 0.184
relative viability (NCI-H1734; first compound 0.2 µM): 0.711
relative viability (NCI-H1734; first compound 0.6325 µM): 0.627
relative viability (NCI-H1734; first compound 2 µM): 0.581
relative viability (NCI-H1734; first compound 6.325 µM): 0.631
relative viability (NCI-H1734; first compound 20 µM): 0.0357
relative viability (NCI-H1755; first compound 0.2 µM): 0.867
relative viability (NCI-H1755; first compound 0.6325 µM): 0.904
relative viability (NCI-H1755; first compound 2 µM): 0.782
relative viability (NCI-H1755; first compound 6.325 µM): 0.805
relative viability (NCI-H1755; first compound 20 µM): 0.817
relative viability (NCI-H2009; first compound 0.2 µM): 0.657
relative viability (NCI-H2009; first compound 0.6325 µM): 0.814
relative viability (NCI-H2009; first compound 2 µM): 0.709
relative viability (NCI-H2009; first compound 6.325 µM): 0.631
relative viability (NCI-H2009; first compound 20 µM): 0.202
relative viability (NCI-H2087; first compound 0.6325 µM): 0.589
relative viability (NCI-H2087; first compound 2 µM): 0.749
relative viability (NCI-H2087; first compound 6.325 µM): 0.649
relative viability (NCI-H2087; first compound 20 µM): 0.241
relative viability (NCI-H2126; first compound 0.2 µM): 0.908
relative viability (NCI-H2126; first compound 0.6325 µM): 0.861
relative viability (NCI-H2126; first compound 2 µM): 0.854
relative viability (NCI-H2126; first compound 6.325 µM): 0.972
relative viability (NCI-H2126; first compound 20 µM): 0.831
relative viability (NCI-H2170; first compound 0.2 µM): 0.608
relative viability (NCI-H2170; first compound 0.6325 µM): 0.539
relative viability (NCI-H2170; first compound 2 µM): 0.649
relative viability (NCI-H2170; first compound 6.325 µM): 0.684
relative viability (NCI-H2170; first compound 20 µM): 0.622
relative viability (NCI-H322M; first compound 0.2 µM): 0.851
relative viability (NCI-H322M; first compound 0.6325 µM): 0.668
relative viability (NCI-H322M; first compound 6.325 µM): 0.772
relative viability (NCI-H322M; first compound 20 µM): 0.568
relative viability (NCI-H441; first compound 0.2 µM): 0.559
relative viability (NCI-H441; first compound 0.6325 µM): 0.674
relative viability (NCI-H441; first compound 2 µM): 0.615
relative viability (NCI-H441; first compound 6.325 µM): 0.505
relative viability (NCI-H441; first compound 20 µM): 0.407
relative viability (NCI-H522; first compound 0.2 µM): 0.656
relative viability (NCI-H522; first compound 0.6325 µM): 0.599
relative viability (NCI-H522; first compound 2 µM): 0.625
relative viability (NCI-H522; first compound 6.325 µM): 0.604
relative viability (NCI-H522; first compound 20 µM): 0.0709
relative viability (NCI-H596; first compound 0.2 µM): 0.718
relative viability (NCI-H596; first compound 0.6325 µM): 0.652
relative viability (NCI-H596; first compound 2 µM): 0.6
relative viability (NCI-H596; first compound 6.325 µM): 0.735
relative viability (NCI-H596; first compound 20 µM): 0.238
relative viability (NCI-H647; first compound 0.2 µM): 0.461
relative viability (NCI-H647; first compound 0.6325 µM): 0.614
relative viability (NCI-H647; first compound 2 µM): 0.722
relative viability (NCI-H647; first compound 6.325 µM): 0.607
relative viability (NCI-H647; first compound 20 µM): 0.593
relative viability (SW 900; first compound 0.2 µM): 1.06
relative viability (SW 900; first compound 0.6325 µM): 0.888
relative viability (SW 900; first compound 6.325 µM): 0.882
relative viability (SW 900; first compound 20 µM): 0.0786

Source: the supplement of paper PMC10307832
